Data on three molecules can be found in patent US20240009170A1, “INHIBITION OF GLYCOGEN SYNTHASE KINASE-3 (GSK-3)” (Brown University, priority 2020, published 2024).

Data set [1] relates to GSK-3. As to conditions: cited from earlier work.
For data set [2], the system named is HCT-116 colorectal cancer cells. The data set can be described thus: Co-culture of HCT-116 and TALL-104 cells with or without αPD-1 therapy. The class given is cell-based, Human. As to conditions: for TALL-104-mediated tumor cell killing: αPD-1 antibody added to co-culture, compared to TALL-104 cells alone. The protocol: (§1) Immune cell co-culture experiments. Co-culture experiments were conducted with GFP+ SW480 or HCT-116 colorectal cancer cells and either NK-92 natural killer cells or TALL-104 T cells in a 48-well plate, in the presence or absence of 9-ING-41. HCT-116 cells were labeled using CellTracker™ Green CMFDA (5-chloromethylfluorescein diacetate), immune cells (NK-92, TALL-104) were labeled using CellTracker™ Blue CMAC Dye (7-amino-4-chloromethylcoumarin), and ethidium homodimer-1 (EthD-1) was used as a marker of cell death (Invitrogen, Thermo Fisher Scientific, Waltham, MA, USA).
9-ING-41 increases tumor cell death in combination with αPD-1 therapy in a co-culture of HCT-116 colorectal cancer cells and immune cells. The inventors were interested in the applicability of GS3K-3 inhibitors such as 9-ING-41 in combination with immune checkpoint blockade. The inventors next performed co-cultures of immune cells (TALL-104, NK-92) and tumor cells (HCT-116) in the presence or absence of 9-ING-41, as well as either pembrolizumab® or nivolumab®, two humanized monoclonal antibodies against PD-1. The inventors evaluated HCT-116 cells in this co-culture model to determine if the 9-ING-41-mediated increase in immune cell-mediated SW480 cell killing could be reproduced in another colorectal cancer cell line.

Data set [3] has the same test system. The data set can be described thus: Co-culture of HCT-116 and NK-92 cells with or without αPD-1 therapy. It counts as cell-based, Human. As to conditions: not statistically significant. Here is the method:
as §1

As to `[Li]` [Lithium], in data set [1], the therapeutic index entry is reported as “narrow therapeutic index”.
As to “nivolumab®: humanized monoclonal antibody against PD-1”, in data set [2], the “TALL-104-mediated tumor cell killing” value is recorded as “increased amount of TALL-104-mediated tumor cell killing”. The “benefit in combination with NK-92 compared to NK-92 alone” value in data set [3] is reported as “limited benefit”.
Take “pembrolizumab®: humanized monoclonal antibody against PD-1”: in data set [2], the “cell death, pembrolizumab+TALL-104 compared to nivolumab+TALL-104” value is on record as “slight increase in cell death” and the “TALL-104-mediated tumor cell killing” value was “increased amount of TALL-104-mediated tumor cell killing”. Further, in data set [3], the “benefit in combination with NK-92 compared to NK-92 alone” value is recorded as “limited benefit”.
